Test results as given in US6509328B1, “Glutamate receptor antagonists” (Hoffmann-La Roche Inc., priority 1999, dated 2003).

Compound	melting point
N#Cc1cccc(C2=Nc3ccc(C#Cc4cccs4)cc3NC(=O)C2)c1 [Example 50, 3-(4-Oxo-7-thiophen-2-ylethynyl-4,5-dihydro-3H-benzo [b][1,4]diazepin-2-yl)-benzonitrile]	235 to 238 °C (dec.)
N#Cc1cccc(C2=Nc3ccc(-c4cccc(F)c4F)cc3NC(=O)C2)c1 [Example 51, 3-[7-(2,3-Difluoro-phenyl)-4-oxo-4,5-dihydro-3H-benzo [b][1,4]diazepin-2-yl]-benzonitrile]	240 °C
N#Cc1cccc(C2=Nc3ccc(-c4ccc(-c5ccccc5)cc4)cc3NC(=O)C2)c1 [Example 54, 3-(7-Biphenyl-4-yl-4-oxo-4,5-dihydro-3H-benzo [b][1,4]diazepin-2-yl)-benzonitrile]	251 to 253 °C
N#Cc1cccc(C2=Nc3ccc(C#Cc4ccc(OC(F)(F)F)cc4)cc3NC(=O)C2)c1 [Example 55, 3-[4-Oxo-7-(4-trifluoromethoxy-phenylethynyl)-4,5-dihydro-3H-benzo [b][1,4]diazepin-2-yl]-benzonitrile]	239 to 241 °C
O=C1CC(c2cccc([N+](=O)[O-])c2)=Nc2ccc(C#Cc3ccccc3)cc2N1 [Example 56, 4-(3-Nitro-phenyl)-8-phenylethynyl-1,3-dihydro-benzo [b][1,4]diazepin-2-one]	228 to 229 °C
COc1ccc(-c2ccc3c(c2)NC(=O)CC(c2cccc(-n4ccnc4)c2)=N3)cc1 [Example 61, 4-(3-Imidazol-1-yl-phenyl)-8-(4-methoxy-phenyl)-1,3-dihydro-benzo [b][1,4]diazepin-2-one]	207 to 208 °C
O=C1CC(c2cccc(-n3ccnc3)c2)=Nc2ccc(C#Cc3ccccc3F)cc2N1 [Example 63, 8-(2-Fluoro-phenylethynyl)-4-(3-imidazol-1-yl-phenyl)-1,3-dihydro-benzo [b][1,4]diazepin-2-one]	201 to 203 °C
O=C1CC(c2cccc(-n3cncn3)c2)=Nc2ccc(-c3ccc(F)cc3)cc2N1 [Example 64, 8-(4-Fluoro-phenyl)-4-(3-[1,2,4]triazol-1-yl-phenyl)-1,3-dihydro-benzo [b][1,4]diazepin-2-one]	241 to 245 °C
N#Cc1ccc(-c2ccc3c(c2)NC(=O)CC(c2cccc(C#N)c2)=N3)cc1 [Example 65, 3-[7-(4-Cyano-phenyl)-4-oxo-4,5-dihydro-3H-benzo [b][1,4]diazepin-2-yl]-benzonitrile]	240 °C (dec.)
N#Cc1ccc(-c2ccc3c(c2)NC(=O)CC(c2cccc(-n4ccnc4)c2)=N3)cc1 [Example 66, 4-[2-(3-Imidazol-1-yl-phenyl)-4-oxo-4,5-dihydro-3H-benzo [b][1,4]diazepin-7-yl]-benzonitrile]	209 to 213 °C (dec.)
O=C1CC(c2cccc([N+](=O)[O-])c2)=Nc2ccc(-c3ccc(F)cc3)cc2N1 [Example 67, 8-(4-Fluoro-phenyl)-4-(3-nitro-phenyl)-1,3-dihydro-benzo [b][1,4]diazepin-2-one]	220 to 226 °C (dec.)
O=C1CC(c2ccnc(-n3ccnc3)c2)=Nc2ccc(-c3ccc(F)cc3)cc2N1 [Example 69, 8-(4-Fluoro-phenyl)-4-(2-imidazol-1-yl-pyridin-4-yl)-1,3-dihydro-benzo [b][1,4]diazepin-2-one]	213 °C (dec.)
Nc1cccc(C2=Nc3ccc(-c4ccc(F)cc4)cc3NC(=O)C2)c1 [Example 70, 4-(3-Amino-phenyl)-8-(4-fluoro-phenyl)-1,3-dihydro-benzo [b][1,4]diazepin-2-one]	210 to 217 °C (dec.)
CS(=O)(=O)Nc1cccc(C2=Nc3ccc(-c4ccc(F)cc4)cc3NC(=O)C2)c1 [Example 73, N-{3-[7-(4-Fluoro-phenyl)-4-oxo-4,5-dihydro-3H-benzo [b][1,4]diazepin-2-yl]-phenyl}-methanesulfonamide]	232 to 235 °C
O=C1CC(c2cccc(-n3ccnc3)c2)=Nc2ccc(-c3ccc(OCc4ccccc4)nc3)cc2N1 [Example 74, 8-(6-Benzyloxy-pyridin-3-yl)-4-(3-imidazol-1-yl-phenyl)-1,3-dihydro-benzo [b][1,4]-diazepin-2-one]	225 to 231 °C
Cc1cn(-c2cccc(C3=Nc4ccc(C#Cc5ccc(F)cc5)cc4NC(=O)C3)c2)cn1 [Example 78, 8-(4-Fluoro-phenylethynyl)-4-[3-(4-methyl-imidazol-1-yl)-phenyl]-1,3-dihydro-benzo [b][1,4]diazepin-2-one]	210 °C
Cc1nccn1-c1cccc(C2=Nc3ccc(-c4ccccc4F)cc3NC(=O)C2)c1 [Example 81, 8-(2-Fluoro-phenyl)-4-[3-(2-methyl-imidazol-1-yl)-phenyl]-1,3-dihydro-benzo[b][1,4]diazepin-2-one]	187 °C
Cc1nccn1-c1cccc(C2=Nc3ccc(-c4ccc(F)cc4)cc3NC(=O)C2)c1 [Example 82, 8-(4-Fluoro-phenyl)-4-[3-(2-methyl-imidazol-1-yl)-phenyl]-1,3-dihydro-benzo[b][1,4]diazepin-2-one]	227 °C
N#Cc1ccsc1C1=CC(=O)Nc2cc(-c3ccccc3F)ccc2N1 [Example 84, 2-[7-(2-Fluoro-phenyl)-4-oxo-4,5-dihydro-1H-benzo [b][1,4]diazepin-2-yl]-thiophene-3-carbonitrile]	238 to 240 °C
O=C1CC(c2cccc(-n3cnnn3)c2)=Nc2ccc(-c3ccccc3F)cc2N1 [Example 88, 8-(2-Fluoro-phenyl)-4-(3-tetrazol-1-yl-phenyl)-1,3-dihydro-benzo [b][1,4]diazepin-2-one]	179 to 180 °C
Cc1cn(-c2cccc(C3=Nc4ccc(-c5ccc(F)cc5)cc4NC(=O)C3)c2)c(C)n1 [Example 89, 4-[3-(2,4-Dimethyl-imidazol-1-yl)-phenyl]-8-(4-fluoro-phenyl)-1,3-dihydro-benzo[b][1,4]diazepin-2-one]	188 °C
Cc1cn(-c2cccc(C3=Nc4ccc(C#Cc5ccccc5)cc4NC(=O)C3)c2)c(C)n1 [Example 90, 4-[3-(2,4-Dimethyl-imidazol-1-yl)-phenyl]-8-phenylethynyl-1,3-dihydro-benzo[b][1,4]diazepin-2-one]	134 °C (dec.)

Other lines, results leading:

melting point	Compound
255 to 256 °C	O=C1CC(c2sccc2Cl)=Nc2ccc(-c3ccc(F)cc3)cc2N1 [Example 91, 4-(3-Chloro-thiophen-2-yl)-8-(4-fluoro-phenyl)-1,3-dihydro-benzo [b][1,4]diazepin-2-one]
232 to 235 °C	N#Cc1cccc(C2=Nc3ccc(-c4cccc(F)c4)cc3NC(=O)C2)c1 [Example 96, 3-[7-(3-Fluoro-phenyl)-4-oxo-4,5-dihydro-3H-benzo [b][1,4]diazepin-2-yl]-benzonitrile]
198 °C	O=C1CC(c2cccc(-n3cnnc3)c2)=Nc2ccc(-c3ccccc3F)cc2N1 [Example 99, 8-(2-Fluoro-phenyl)-4-(3-[1,2,4]triazol-4-yl-phenyl)-1,3-dihydro-benzo [b][1,4]diazepin-2-one]
> 250 °C	N#Cc1ccc(C2=Nc3ccc(-c4ccccc4F)cc3NC(=O)C2)s1 [Example 100, 5-[7-(2-Fluoro-phenyl)-4-oxo-4,5-dihydro-3H-benzo [b][1,4]diazepin-2-yl]-thiophene-2-carbonitrile]
92 °C	Cc1cn(-c2cccc(C3=Nc4ccc(-c5ccccc5F)cc4NC(=O)C3)c2)c(C)n1 [Example 101, 4-[3-(2,4-Dimethyl-imidazol-1-yl)-phenyl]-8-(2-fluoro-phenyl)-1,3-dihydro-benzo[b][1,4]diazepin-2-one]
189 to 190 °C	COCSc1nccn1-c1cccc(C2=Nc3ccc(-c4ccccc4F)cc3NC(=O)C2)c1 [Example 102, 8-(2-Fluoro-phenyl)-4-[3-(2-methoxymethylsulfanyl-imidazol-1-yl)-phenyl]-1,3-dihydro-benzo[b][1,4]diazepin-2-one]
239 °C	N#Cc1ccc(F)c(C2=Nc3ccc(-c4ccccc4F)cc3NC(=O)C2)c1 [Example 103, 4-Fluoro-3-[7-(2-fluoro-phenyl)-4-oxo-4,5-dihydro-3H-benzo [b][1,4]diazepin-2-yl]-benzonitrile]
173 to 178 °C	CC(C)c1ccc2c(c1)NC(=O)CC(c1ccnc(C#N)c1)=N2 [Example 105, 4-(7-Isopropyl-4-oxo-4,5-dihydro-3H-benzo [b][1,4]diazepin-2-yl)-pyridine-2-carbonitrile]
229 °C	Cc1cn(-c2nc(C3=Nc4ccc(-c5ccccc5F)cc4NC(=O)C3)cs2)cn1 [Example 106, 8-(2-Fluoro-phenyl)-4-[2-(4-methyl-imidazol-1-yl)-thiazol-4-yl]-1,3-dihydro-benzo[b][1,4]diazepin-2-one]
229 °C	Cc1cn(-c2nc(C3=Nc4ccc(-c5ccc(F)cc5)cc4NC(=O)C3)cs2)cn1 [Example 107, 8-(4-Fluoro-phenyl)-4-[2-(4-methyl-imidazol-1-yl)-thiazol-4-yl]-1,3-dihydro-benzo[b][1,4]diazepin-2-one]
212 to 214 °C	N#Cc1cccc(C2=Nc3ccc(CCc4ccccc4)cc3NC(=O)C2)c1 [Example 108, 3-(4-Oxo-7-phenethyl-4,5-dihydro-3H-benzo[b][1,4]diazepin-2-yl)-benzonitrile]
204 to 209 °C	N#Cc1cccc(C2=Nc3ccc(C4CC4)cc3NC(=O)C2)c1 [Example 111, 3-(7-Cyclopropyl-4-oxo-4,5-dihydro-3H-benzo [b][1,4]diazepin-2-yl)-benzonitrile]
227 to 230 °C	N#Cc1cc(C2=Nc3ccc(C4CC4)cc3NC(=O)C2)ccn1 [Example 112, 4-(7-Cyclopropyl-4-oxo-4,5-dihydro-3H-benzo[b][1,4]diazepin-2-yl)-pyridine-2-carbonitrile]
246 to 248 °C	O=C1CC(c2cccc(-n3ccnn3)c2)=Nc2ccc(C#Cc3ccc(F)cc3)cc2N1 [Example 115, 8-(4-Fluoro-phenylethynyl)-4-(3-[1,2,3]triazol-1-yl-phenyl)-1,3-dihydro-benzo[b][1,4]diazepin-2-one]
247 °C	N#Cc1cccc(C2=Nc3ccc(-c4cc(F)ccc4F)cc3NC(=O)C2)c1 [Example 125, 3-[7-(2,5-Difluoro-phenyl)-4-oxo-4,5-dihydro-3H-benzo [b][1,4]diazepin-2-yl]-benzonitrile]
